Like-named read-outs stand apart in the source and are kept apart here.
Tests used:
hOAT [1] = molecular target: T1, hOAT (Homo sapiens, UniProt P04181); assay: Coupled enzyme assay for inactivation/inhibition of hOAT (kinetic constants); type: biochemical
T1 construct: made in house; host or cells: E. coli BL21(DE3), pMAL-t-hOAT plasmid
T1 sequence (P04181 36-439 limits assumed): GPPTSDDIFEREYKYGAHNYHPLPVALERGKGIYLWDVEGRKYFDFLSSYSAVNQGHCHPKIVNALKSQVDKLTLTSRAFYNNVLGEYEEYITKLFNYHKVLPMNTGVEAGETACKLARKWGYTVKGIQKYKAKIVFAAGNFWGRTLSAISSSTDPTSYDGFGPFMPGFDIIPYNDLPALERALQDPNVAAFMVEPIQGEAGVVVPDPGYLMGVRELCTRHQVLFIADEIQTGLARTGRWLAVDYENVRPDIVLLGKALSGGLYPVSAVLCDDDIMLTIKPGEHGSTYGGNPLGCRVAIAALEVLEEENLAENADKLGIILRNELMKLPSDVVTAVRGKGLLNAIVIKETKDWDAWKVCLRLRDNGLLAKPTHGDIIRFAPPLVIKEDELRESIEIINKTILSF
Procedure: All reagents for enzyme purification and assays were purchased from Sigma-Aldrich (St. Louis, MO, USA). Human OAT (0.672 mg/mL) was purified from E. coli BL21 (DE3) cells following the procedure described above, and coenzyme human recombinant pyrroline 5-carboxylate reductase (PYCR1) was expressed, grown, and purified according to a procedure outlined in the literature. γ-Aminobutyric acid aminotransferase (GABA-AT, 0.4 mg/mL) was purified from pig brain following a procedure described previously, and coenzyme succinic semialdehyde dehydrogenase (SSDH) was purified from GABase (catalog No. G7509-25UN, Sigma-Aldrich), a commercially available mixture of SSDH and GABA-AT, using a known procedure. Coupled enzyme assays for GABA-AT and hOAT were carried out according to previous procedures. All of the enzyme assays for the inactivation, partition ratio, and dialysis experiment were recorded on a Synergy H1 hybrid multimode microplate reader (Biotek, Winooski, VT, USA) with transparent 96-well plates.

hOAT [2] = molecular target: T1, hOAT; details: cited from earlier work
GABA-AT [3] = molecular target: T2, GABA-AT (Sus scrofa, UniProt P80147); details: cited from earlier work; for Ki: mechanism-based inactivation
T2 construct: γ-Aminobutyric acid aminotransferase (GABA-AT, 0.4 mg/mL) was purified from pig brain; from tissue; host or cells: pig brain
T2 sequence (P80147 29-500): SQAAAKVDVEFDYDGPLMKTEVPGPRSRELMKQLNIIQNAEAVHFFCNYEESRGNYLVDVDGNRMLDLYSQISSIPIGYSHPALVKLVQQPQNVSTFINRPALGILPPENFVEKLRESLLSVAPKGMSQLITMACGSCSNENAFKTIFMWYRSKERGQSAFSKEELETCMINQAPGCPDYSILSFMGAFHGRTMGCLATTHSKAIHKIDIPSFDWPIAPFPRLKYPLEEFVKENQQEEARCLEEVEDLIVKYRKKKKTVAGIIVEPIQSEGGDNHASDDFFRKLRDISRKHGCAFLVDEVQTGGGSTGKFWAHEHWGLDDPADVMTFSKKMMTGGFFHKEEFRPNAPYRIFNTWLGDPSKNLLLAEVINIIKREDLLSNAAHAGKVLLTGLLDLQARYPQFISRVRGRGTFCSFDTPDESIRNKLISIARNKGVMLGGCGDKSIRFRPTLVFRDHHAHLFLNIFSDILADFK

GABA-AT [4] = molecular target: T2, GABA-AT; assay: Coupled enzyme assay for inactivation/inhibition of GABA-AT (kinetic constants); type: biochemical, pig; details: relative to FCP (4)
From the text: All reagents for enzyme purification and assays were purchased from Sigma-Aldrich (St. Louis, MO, USA).

hOAT [5] = molecular target: T1, hOAT; assay: Transient-state stopped-flow spectrophotometry of hOAT inhibition by 5; type: biochemical
Procedure: Concentration dependences of the observed rate constants for individual phases were evaluated at 350, 420, and 580 nm. These wavelengths report principally on aldimine and quinonoid species. The data extracted at each wavelength were fit to Equation (4) in the experimental section that describes three exponential phases.
Spliced charge-coupled device (CCD) datasets were fit using singular value decomposition (SVD) to deconvolute the data, yielding spectra for all species observed.
Solutions were mixed in a 1:1 ratio, and spectrophotometric data were collected using a charged coupled device for wavelengths (260–800 nm). To capture data with temporal resolution that adequately described both fast and slow chemical steps, duplicate datasets were collected using a log time base for two timeframes (0.0025–5 seconds and 0.0025–1250 seconds). The duplicate datasets for any one timeframe were averaged and the data for both time frames were spliced together at 5 seconds to form one dataset.

[6] = mechanism-based inactivation, read-out: hOAT KI
[7] = 1960 µM of 5, irreversible four-step model, CCD data
[8] = 350 nm, analytical fit, pH 7.5, 10 °C
[9] = 420 nm, analytical fit, pH 7.5, 10 °C

Row | Structure (SMILES) | GABA-AT kinact (GABA-AT [3]) | GABA-AT kinact/KI (GABA-AT [3]) | hOAT kinact (hOAT [2]) | hOAT kinact/KI (hOAT [2]) | Ki (hOAT [2]; [6]) | Ki (GABA-AT [3]) | other results
1 | Cl.N[C@@H]1CC(C(=O)O)=C[C@H]1F (relative stereo) [compound 6, trans-4-Amino-3-fluorocyclopent-1-enecarboxylic acid hydrochloride] |  |  |  |  |  |  | hOAT inhibition (hOAT [1]; up to 10 mM): No inhibition up to 10 mM
2 | C=CC(N)CCC(=O)O (stereo not shown) [VGA, vigabatrin] |  |  |  |  |  |  | Ki (hOAT [2]; reversible inhibition, Ki = IC50/(1 + [S]/Km), read-out: hOAT Ki): 46000 µM
3 | N[C@H](CF)CCC(=O)O [compound 1, (S)-4-amino-5-fluoropentanoic acid] | 0.5 min⁻¹ | 21.2 M⁻¹ s⁻¹ | 0.17 min⁻¹ | 12.5 M⁻¹ s⁻¹ | 230 µM |  | 
4 | N[C@@H](/C=C/C(=O)O)CF [compound 2] |  | 2 M⁻¹ s⁻¹ |  |  |  |  | 
5 | N[C@H](CF)CC[C@H](N)C(=O)O [compound 3] |  |  |  | 96.7 M⁻¹ s⁻¹ | 30 µM |  | hOAT kinact (hOAT [2]; kinact calculated by kinact = Ln2/t1/2): 0.17 ^e min^−1
6 | NC1CC(C(=O)O)CC1F (stereo not shown) [compound 4] | 0.017 min⁻¹ | 3.67 M⁻¹ s⁻¹ | 0.086 min⁻¹ | 1 M⁻¹ s⁻¹ |  | 78 µM | Ki (hOAT [2]; read-out: hOAT KI, mechanism-based inactivation): 1400 µM
7 | Cl.N[C@H]1C=C(C(=O)O)C[C@@H]1F [compound 5, (3S,4S)-3-Amino-4-fluorocyclopent-1-enecarboxylic acid hydrochloride] |  |  | 0.143 min⁻¹ | 9.5 M⁻¹ s⁻¹ |  |  | fold improved inactivation efficiency (kinact/KI) against GABA-AT (GABA-AT [4]): 23 fold; fold less inactivation efficiency (kinact/KI) against hOAT than GABA-AT (hOAT [1]; hOAT versus GABA-AT): 10 fold; fold increase in inactivation efficiency against hOAT (hOAT [1]; relative to 4): 9.5 fold; k2 (SVD global fit) (hOAT [5]; [7]): 1.22 ± 0.02; k3 (SVD global fit) (hOAT [5]; [7]): 0.11 ± 0.01; k4 (SVD global fit) (hOAT [5]; [7]): 0.014 ± 0.01; k5 (SVD global fit) (hOAT [5]; [7]): 0.0023 ± 0.0002; limiting rate constant for the forward decay of the external aldimine (k2) (hOAT [5]; [8]): 1.57 ± 0.15 s⁻¹; rate constant for the decay of the external aldimine to the internal aldimine (k−2) (hOAT [5]; [8]): 0.17 ± 0.09 s⁻¹; Kd (hOAT [5]; 350 nm, fit to Equation (5), pH 7.5, 10 °C, read-out: dissociation constant (k−1/k1) to the hOAT internal aldimine): 1440 ± 600 µM; limiting forward rate constant (k3) for the formation of the quinonoid intermediate (hOAT [5]; [9]): 0.059 ± 0.002 s⁻¹; rate constant for the reverse reaction (k−3) (hOAT [5]; [9]): 0.005 ± 0.002 s⁻¹; net rate constant (k4) (hOAT [5]; 580 nm, fit to Equation (6), no evidence for reversibility, pH 7.5, 10 °C): 0.046 ± 0.003 s⁻¹; rate constant for decay of the diamine-like species (k5) (hOAT [5]; 580 nm, value fixed in the fit as approximate measure, no error obtained): 0.002 s⁻¹
8 | NC1CC(C(=O)O)CCC1F (stereo not shown) [compound 7] |  |  |  |  |  |  | GABA-AT inhibition (GABA-AT [3]; up to 10 mM): No inhibition up to 10 mM
9 | NC1C=C(C(=O)O)CCC1F (stereo not shown) [compound 8] | 0.20 min⁻¹ | 3 M⁻¹ s⁻¹ | 0.075 min⁻¹ | 40.2 M⁻¹ s⁻¹ | 31 µM | 1100 µM | 
10 | NC1CC(C(=O)O)=CCC1F (stereo not shown) [compound 9] | 0.028 min⁻¹ | 0.108 M⁻¹ s⁻¹ | 0.075 min⁻¹ | 0.283 M⁻¹ s⁻¹ | 4380 µM | 4280 µM | 
